# Experimental data as given in paper PMC8352719 (The Journal of General Physiology, 2021).
# “And” between values parts separate entries of the source, which are not always exact repeats. Identical values can stand only once. “Also recorded” adds a separate entry of the source. Like-named read-outs stand apart in the source and are kept apart here.
# How the values were obtained:
# [1] = target: BKα/γ1 channels (human BK channel α- and γ1-subunits (LRRC26), HEK-293T) (Homo sapiens, UniProt Q12791); experiment: Macroscopic BK currents in excised inside-out patches; type: biochemical
# BKα/γ1 channels = BKα/γ1 channels (Homo sapiens, UniProt Q12791); experiment: Whole-cell recordings from HEK-293T cells overexpressing BKα/γ1 channels; type: cell-based
# BKα channels = BKα channels (Homo sapiens, UniProt Q12791); experiment: Kinetic model analysis
# [2] = LOP levels with a therapeutic dose in humans; type: in vivo; settings: therapeutic dose of 2–4 mg, assuming solvation in 1 liter of luminal fluid
# [3] = target: T1, BKα channels (human BK channel α-subunit, HEK-293T) (Homo sapiens, UniProt Q12791); settings: for τ of decay phase on LOP application: perfusion limited; for V1/2: 10 μM LOP; for effective off-rate: IC50 × on-rate; for τrecovery: two-pulse protocol
# [4] = target: T1, BKα channels (human BK channel α-subunit, HEK-293T); settings: 30 µM LOP
# BK channel = settings: ref Vouga et al., 2019; cited from earlier work
# [5] = humans; therapeutic dose of 2–4 mg; conversion of 2 ng/ml; cited from earlier work
# [6] = target: T1, BKα channels (human BK channel α-subunit, HEK-293T); experiment: biochemical
# [7] = IC50 (Hill fit of mean Gmax versus [LOP]), nominally 0 Ca2+
# [8] = IC50 (Hill fit of mean V1/2 versus [LOP]), nominally 0 Ca2+
# [9] = nominally 0 Ca2+, 30 μM LOP, mean of individual Boltzmann fits
# [10] = nominally 0 Ca2+, −100 to −60 mV
# BKα/γ1 channels, sequence (Q12791 whole entry): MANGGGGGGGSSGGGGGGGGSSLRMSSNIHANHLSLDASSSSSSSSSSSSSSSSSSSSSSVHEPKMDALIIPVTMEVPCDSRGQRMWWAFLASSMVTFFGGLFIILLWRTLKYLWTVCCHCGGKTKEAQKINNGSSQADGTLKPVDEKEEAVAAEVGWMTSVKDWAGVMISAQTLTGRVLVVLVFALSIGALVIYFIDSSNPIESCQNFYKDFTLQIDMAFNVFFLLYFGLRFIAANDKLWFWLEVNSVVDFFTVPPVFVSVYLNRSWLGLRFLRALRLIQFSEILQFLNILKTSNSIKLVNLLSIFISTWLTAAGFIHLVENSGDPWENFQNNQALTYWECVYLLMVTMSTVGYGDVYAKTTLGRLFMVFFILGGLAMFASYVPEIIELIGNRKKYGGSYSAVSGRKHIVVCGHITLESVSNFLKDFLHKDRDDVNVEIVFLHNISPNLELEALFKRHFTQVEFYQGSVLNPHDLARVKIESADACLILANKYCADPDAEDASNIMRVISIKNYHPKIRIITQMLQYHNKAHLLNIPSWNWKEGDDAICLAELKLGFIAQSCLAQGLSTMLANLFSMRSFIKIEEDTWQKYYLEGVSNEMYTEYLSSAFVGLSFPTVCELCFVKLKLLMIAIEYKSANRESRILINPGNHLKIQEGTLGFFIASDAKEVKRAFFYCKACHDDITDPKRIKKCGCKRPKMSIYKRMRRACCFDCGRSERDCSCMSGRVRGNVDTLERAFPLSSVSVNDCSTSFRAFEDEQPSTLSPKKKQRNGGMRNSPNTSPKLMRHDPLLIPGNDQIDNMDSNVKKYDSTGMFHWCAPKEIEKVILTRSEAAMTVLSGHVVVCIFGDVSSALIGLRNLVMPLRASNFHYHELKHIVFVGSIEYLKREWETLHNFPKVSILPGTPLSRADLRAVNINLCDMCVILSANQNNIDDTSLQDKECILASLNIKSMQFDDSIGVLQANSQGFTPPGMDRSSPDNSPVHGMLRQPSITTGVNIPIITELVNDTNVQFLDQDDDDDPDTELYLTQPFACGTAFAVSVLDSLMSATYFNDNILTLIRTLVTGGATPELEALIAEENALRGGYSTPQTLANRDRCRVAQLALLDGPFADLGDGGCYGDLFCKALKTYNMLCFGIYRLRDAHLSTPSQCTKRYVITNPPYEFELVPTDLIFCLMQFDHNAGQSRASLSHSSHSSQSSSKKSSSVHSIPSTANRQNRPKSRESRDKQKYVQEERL
# BKα/γ1 channels, sequence (Q2I0M4 27-334 partner): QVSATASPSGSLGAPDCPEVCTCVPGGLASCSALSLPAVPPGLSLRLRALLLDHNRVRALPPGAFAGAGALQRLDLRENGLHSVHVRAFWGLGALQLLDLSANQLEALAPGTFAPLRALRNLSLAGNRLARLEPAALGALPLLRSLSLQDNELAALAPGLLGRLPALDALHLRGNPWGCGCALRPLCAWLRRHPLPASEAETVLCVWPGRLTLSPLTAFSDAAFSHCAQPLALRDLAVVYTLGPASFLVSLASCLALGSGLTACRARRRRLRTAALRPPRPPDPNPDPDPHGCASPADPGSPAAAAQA
# T1 sequence (Q12791 whole entry, the tested form may be a part): as the sequence (Q12791 whole entry) above
# BKα/γ1 channels (human BK channel α- and γ1-subunits (LRRC26), HEK-293T), sequence (Q12791 whole entry): as above
# BKα/γ1 channels (human BK channel α- and γ1-subunits (LRRC26), HEK-293T), sequence (Q2I0M4 27-334 partner): as the sequence (Q2I0M4 27-334 partner) above
# BKα channels, sequence (Q12791 whole entry): as the sequence (Q12791 whole entry) above
compound,measurement,setting,value
"CN(C)C(=O)C(CCN1CCC(O)(c2ccc(Cl)cc2)CC1)(c1ccccc1)c1ccccc1 [LOP, 4-[4-(4-chlorophenyl)-4-hydroxypiperidin-1-yl]-N,N-dimethyl-2,2-diphenylbutanamide]",IC50,[1]; [7],2130 ± 300 nM
same,IC50,[1]; [8],1500 ± 1700 nM
same,IC50,"[1]; IC50, nominally 0 Ca2+, Vm 0 mV, Hill fit of normalized G vs [LOP]",11300 ± 3500 nM
same,"A (Eq. 4, IC50 versus voltage)",[1]; nominally 0 Ca2+,7.6
same,mean zδ value of G-V relations versus [LOP],[1]; nominally 0 Ca2+,1.2 e0
same,min V1/2 (Hill fit of mean V1/2 versus [LOP]),[1]; nominally 0 Ca2+,−15 ± 11 mV
same,nH (Hill fit of mean Gmax versus [LOP]),[1]; nominally 0 Ca2+,0.74 ± 0.06
same,nH (Hill fit of mean V1/2 versus [LOP]),[1]; nominally 0 Ca2+,0.72 ± 0.4
same,Gmax,[1]; [9],0.12 ± 0.04
same,V1/2,[1]; [9],−11 ± 5 mV
same,current recovery after washout of LOP (of predrug amplitude),"BKα/γ1 channels; 10 µM LOP, extracellular bath",~80%
same,mean fractional whole-cell current at equilibrium,"BKα/γ1 channels; bath application of 10 µM LOP, pulses to 100 mV",0.39 ± 0.06
same,slowing versus cytosolic application to excised inside-out patches,BKα/γ1 channels; extracellular bath-applied LOP,~20 times
same,mean time constant for inhibition to reach equilibrium,BKα/γ1 channels; extracellular bath-applied LOP (10 µM),2.8 ± 0.4 min
same,τ of exponential fit (a),"BKα/γ1 channels; representative experiment Fig. 5 A, first application of 10 µM LOP at t = 5 min",1.9 min
same,τ of exponential fit (e),"BKα/γ1 channels; representative experiment Fig. 5 A, washout at t = 25 min",51 s
same,KLOP in the open state,BKα channels,1.6 µM
same,KLOP (dissociation constant for LOP binding),"BKα channels; Sch 2, closed state, global fit, nominally 0 and 88 μM Ca2+",53.4 µM
same,"H (allosteric constant, LOP binding vs closed-open equilibrium)","BKα channels; Sch 2, fold difference in LOP affinity between closed and open states",34.4
same,W (coupling between LOP binding and CSD activation),BKα channels; Sch 5,1.09
same,estimated concentration of LOP in the intestinal lumen,[2],≥ 8 µM
same,mean fractional current,"[3]; 3 µM LOP cytosolic with 3 µM extracellular LOP (pipette), 88 µM Ca2+",0.361 ± 0.013
same,mean fractional current,"[3]; 3 µM LOP cytosolic without extracellular LOP, 88 µM Ca2+",0.292 ± 0.033
same,effect of extracellular LOP alone on BK current,"[3]; 3 µM LOP in pipette solution, 88 µM Ca2+, several minutes",little apparent effect; also recorded: no apparent inhibition
same,decrease of normalized current,"[3]; 3 µM LOP in the pipette, 0 LOP cytosolic, after 30 min of continuous recording",5–10%
same,τ of decay phase on LOP application,"[3]; 30 µM LOP cytosolic, 0 µM Ca2+, representative experiment",8.5 s
same,τ of decay phase on LOP application,"[3]; 30 µM LOP cytosolic, 88 µM Ca2+, representative experiment",7.1 s
same,current recovery after washout of LOP (of predrug amplitude),"[3]; 30 µM LOP cytosolic, Fig. 2 A",~100%
same,time constant of LOP reaching 90% of its maximal effect,"[3]; 30 µM LOP to cytosolic side, 88 µM Ca2+, reflects solution switching",7 ± 1 s
same,"A (Eq. 4, IC50 versus voltage)",[3]; 88 µM Ca2+,0.39
same,min V1/2 (Hill fit of mean V1/2 versus [LOP]),[3]; 88 µM Ca2+,−57 ± 8 mV
same,nH (Hill fit of mean Gmax versus [LOP]),[3]; 88 µM Ca2+,0.79 ± 0.06
same,nH (Hill fit of mean V1/2 versus [LOP]),[3]; 88 µM Ca2+,0.94 ± 0.6
same,y0 (final normalized current in pulse train),"[3]; 88 μM Ca2+, 3 µM LOP, 90 mV / -60 mV duration 2 / 2 ms",0.50 ± 0.019
same,y0 (final normalized current in pulse train),"[3]; 88 μM Ca2+, 3 µM LOP, 90 mV / -60 mV duration 2 / 8 ms",0.74 ± 0.032
same,V1/2,"[3]; 88 μM Ca2+, mean of individual Boltzmann fits",−54 ± 7 mV
same,Gmax,"[3]; 88 μM Ca2+, 30 μM LOP, mean of individual Boltzmann fits",0.0763 ± 0.008
same,effective on-rate (slope of 1/τdecay versus [LOP]),"[3]; 88 µM Ca2+, 50 mV",4.3 ± 0.4 × 10^7 M^−1 s^−1 and 4.3 × 10^7 ± 0.4 × 10^7 M^−1 s^−1
same,effective off-rate,"[3]; 88 µM Ca2+, 50 mV",~40 s⁻¹
same,effective on-rate (slope of 1/τdecay versus [LOP]),"[3]; 88 µM Ca2+, 90 mV",5.8 ± 0.6 × 10^7 M^−1 s^−1 and 5.8 × 10^7 ± 0.6 × 10^7 M^−1 s^−1
same,effective off-rate,"[3]; 88 µM Ca2+, 90 mV",41 s⁻¹ and 40 s⁻¹
same,nominal effective valence of on-rates (Eq. 5),"[3]; 88 µM Ca2+, on-rates at 50 and 90 mV",0.21 ± 0.11 e0
same,τrecovery,"[3]; 88 µM Ca2+, −80 mV, 3 µM LOP",3.87 ms
same,τrecovery,"[3]; 88 µM Ca2+, −80 mV, 10 µM LOP",4.14 ms
same,mean tail current τ,"[3]; 88 µM Ca2+, −80 mV, 3 µM LOP",1.82 ± 0.14 ms
same,mean tail current τ,"[3]; 88 µM Ca2+, −80 mV, 10 µM LOP",2.05 ± 0.6 ms
same,τrecovery,"[3]; 88 µM Ca2+, −120 mV, 3 µM LOP",2.04 ms
same,τrecovery,"[3]; 88 µM Ca2+, −120 mV, 10 µM LOP",2.11 ms
same,mean tail current τ,"[3]; 88 µM Ca2+, −120 mV, 3 µM LOP",0.71 ± 0.06 ms
same,mean tail current τ,"[3]; 88 µM Ca2+, −120 mV, 10 µM LOP",0.78 ± 0.07 ms
same,current recovery following washout of cytosolic LOP,"[3]; 3 or 30 µM cytosolic LOP with 3 µM extracellular LOP, 88 µM Ca2+, Fig. 2 B",> 90%
same,"A (Eq. 4, IC50 versus voltage)",[3]; nominally 0 Ca2+,"5,500"
same,mean zδ value of G-V relations versus [LOP],[3]; nominally 0 Ca2+,1.1 e0
same,min Gmax (Hill fit of mean Gmax versus [LOP]),[3]; nominally 0 Ca2+,0.16 ± 0.04
same,min V1/2 (Hill fit of mean V1/2 versus [LOP]),[3]; nominally 0 Ca2+,162 ± 16 mV
same,nH (Hill fit of mean Gmax versus [LOP]),[3]; nominally 0 Ca2+,1.2 ± 0.13
same,nH (Hill fit of mean V1/2 versus [LOP]),[3]; nominally 0 Ca2+,0.65 ± 1.1
same,V1/2,"[3]; nominally 0 Ca2+, mean of individual Boltzmann fits",165 ± 5 mV
same,time to complete reversal of inhibition upon washout,"[3]; switch from 30 to 0 µM LOP, cytosolic side",≤ 1 min
same,τ of wash phase,"[3]; washout of 30 µM LOP, 0 µM Ca2+, representative experiment",35 s
same,apparent closing rate (1/τclosing),"[3]; −80 mV, 3 µM LOP",684 ± 57 s⁻¹
same,tail current τ (fit to mean trace),"[3]; −80 mV, 3 µM LOP",1.99 ms
same,tail current τ (representative trace),"[3]; −80 mV, 3 µM LOP",2.25 ms
same,tail current τ (fit to mean trace),"[3]; −80 mV, 10 µM LOP",1.77 ms
same,tail current τ (representative trace),"[3]; −80 mV, 10 µM LOP",1.73 ms
same,apparent closing rate (1/τclosing),"[3]; −120 mV, 3 µM LOP","1,460 ± 69 s^−1"
same,tail current τ (fit to mean trace),"[3]; −120 mV, 3 µM LOP",0.82 ms
same,tail current τ (representative trace),"[3]; −120 mV, 3 µM LOP",0.876 ms
same,tail current τ (fit to mean trace),"[3]; −120 mV, 10 µM LOP",0.85 ms
same,tail current τ (representative trace),"[3]; −120 mV, 10 µM LOP",0.694 ms
same,mean open times,"[4]; voltages up to 100 mV, nominally 0 or 88 µM Ca2+",≤ 0.44 ms
same,V1/2 of mean open time (Boltzmann fit),[4]; 88 µM Ca2+,−83 mV
same,min. open time (Boltzmann fit),[4]; 88 µM Ca2+,0.26 ms
same,zδ of mean open time (Boltzmann fit),[4]; 88 µM Ca2+,1.6 e0
same,effective inhibition rate,"[4]; 88 µM Ca2+, 1/0.43 ms","2,326 s^−1"
same,mean open time,"[4]; 88 µM Ca2+, +50 mV",0.37 ± 0.044 ms
same,maximum open time (Boltzmann fit),"[4]; 88 µM Ca2+, depolarized voltages",0.43 ± 0.03 ms and 0.43 ms
same,mean open time,"[4]; 88 µM Ca2+, −50 mV",0.44 ± 0.026 ms
same,Po,"[4]; 88 µM Ca2+, −90 mV",0.00728 ± 0.0010
same,inhibition of Po,"[4]; 88 µM Ca2+, −90 mV",2.7 fold
same,mean open time,"[4]; 88 µM Ca2+, −90 mV",0.32 ± 0.03 ms
same,Po,"[4]; 88 µM Ca2+, −160 to −130 mV",0.0037 ± 0.0003
same,mean open time,"[4]; 88 µM Ca2+, −160 to −130 mV",0.26 ± 0.004 ms
same,effective inhibition rate,"[4]; nominally 0 Ca2+, 1/0.39 ms","2,564 s^−1"
same,Po,"[4]; nominally 0 Ca2+, +60 mV",1.3 ± 0.6 × 10^−4
same,inhibition of Po,"[4]; nominally 0 Ca2+, +60 mV",3.7 fold
same,mean open time,"[4]; nominally 0 Ca2+, +60 mV",0.32 ± 0.03 ms
same,Po,"[4]; nominally 0 Ca2+, +80 mV",5.4 ± 1.3 × 10^−4
same,inhibition of Po,"[4]; nominally 0 Ca2+, +80 mV",3.5 fold
same,mean open time,"[4]; nominally 0 Ca2+, +80 mV",0.38 ± 0.008 ms
same,extrapolated maximum open time (Boltzmann fit),"[4]; nominally 0 Ca2+, depolarized voltages",0.39 ± 0.04 ms
same,mean Po,[4]; [10],1.7 ± 0.2 × 10^−6
same,mean open time,[4]; [10],0.18 ± 0.009 ms
same,inhibition of BK channel–mediated thallium flux,BK channel,potent inhibitor
same,plasma levels of LOP,[5],~4 nM
same,IC50,"[6]; IC50 (Hill fit of mean Gmax versus [LOP]), 88 µM Ca2+",1060 nM and 1100 nM
same,IC50,[6]; [7],1400 nM and 1410 nM
same,IC50,"[6]; IC50 (Hill fit of mean V1/2 versus [LOP]), 88 µM Ca2+",310 ± 300 nM
same,IC50,[6]; [8],550 nM
same,IC50,"[6]; IC50(∞), asymptotic IC50 at very depolarized voltages (Eq. 4), 88 µM Ca2+",870 nM
same,IC50,"[6]; IC50(∞), asymptotic IC50 at very depolarized voltages (Eq. 4), nominally 0 Ca2+",2200 nM
same,IC50,"[6]; IC50, 88 μM Ca2+, Vm 50 mV, Hill fit of normalized G vs [LOP]",~940 nM
same,IC50,"[6]; extrapolated IC50, 88 µM Ca2+, 90 mV",710 nM
same,IC50,"[6]; half-maximal inhibitory concentration (IC50) for open channels, voltage-activated BK current, wide range of cytosolic [Ca2+]",~1000 nM
